Data from US12509452B2, “Substituted-isoxazoline-containing aromatic compound, preparation method therefor, herbicidal composition and use thereof” (QINGDAO KINGAGROOT CHEMICAL COMPOUND CO., LTD., priority 2019, dated 2025).

Legend:
Assay in all cases: weeding effect in post-emergence stage
Assay type in all cases: in vivo
[1] = system: Alopecurus japonicus
Outline: (§1)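 Weeds grown in soil-filled pots in a greenhouse, sprayed at the 2-3 leaf stage (2 weeks after sowing) with compound in acetone/Tween 80 plus methyl oleate EC (1.5 L/ha) at 500 to 7.5 g a.i./ha. Fresh-weight growth control assessed 3 weeks later, triplicate means, scored on a 0-5 scale.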

[2] = system: Beckmannia syzigachne
Outline: as §1

[3] = system: Conyza japonica
Outline: as §1

[4] = system: Rorippa indica
Outline: as §1

| SMILES | weeding effect in post-emergence stage, Alopecurus japonicus (activity level) ([1]; dose 125 g a.i./ha) | weeding effect in post-emergence stage, Beckmannia syzigachne (activity level) ([2]; dose 125 g a.i./ha) | weeding effect in post-emergence stage, Conyza japonica (activity level) ([3]; dose 125 g a.i./ha) | weeding effect in post-emergence stage, Rorippa indica (activity level) ([4]; dose 125 g a.i./ha) | weeding effect in post-emergence stage, Alopecurus japonicus (activity level) ([1]; dose 15 g a.i./ha) | weeding effect in post-emergence stage, Beckmannia syzigachne (activity level) ([2]; dose 15 g a.i./ha) | weeding effect in post-emergence stage, Conyza japonica (activity level) ([3]; dose 15 g a.i./ha) | weeding effect in post-emergence stage, Rorippa indica (activity level) ([4]; dose 15 g a.i./ha) | weeding effect in post-emergence stage, Alopecurus japonicus (activity level) ([1]; dose 7.5 g a.i./ha) | weeding effect in post-emergence stage, Beckmannia syzigachne (activity level) ([2]; dose 7.5 g a.i./ha) | weeding effect in post-emergence stage, Conyza japonica (activity level) ([3]; dose 7.5 g a.i./ha) | weeding effect in post-emergence stage, Rorippa indica (activity level) ([4]; dose 7.5 g a.i./ha) |
| --- | --- | --- | --- | --- | --- | --- | --- | --- | --- | --- | --- | --- |
| CCOC(=O)C1(CCF)CC(c2cc(-n3c(=O)cc(C(F)(F)F)n(C)c3=O)c(F)cc2Cl)=NO1 (racemic) [Compound 136] | 5 (Level 5: growth control rate is above 85%) | 5 (Level 5: growth control rate is above 85%) | 5 (Level 5: growth control rate is above 85%) | 5 (Level 5: growth control rate is above 85%) | – | – | – | – | – | – | – | – |
| CCOC(=O)CCC1(C)CC(c2cc(-n3c(=O)n(C)c(=S)n(C)c3=O)c(F)cc2Cl)=NO1 (centres unmarked) [Compound 1-94] | – | – | – | – | 5 (Level 5: growth control rate is above 85%) | 5 (Level 5: growth control rate is above 85%) | 5 (Level 5: growth control rate is above 85%) | 5 (Level 5: growth control rate is above 85%) | – | – | – | – |
| CCCCOC(=O)C1(C)CC(c2cc(-n3c(=O)n(C)c(=S)n(C)c3=O)c(F)cc2Cl)=NO1 (centres unmarked) [Compound 1-72] | – | – | – | – | 5 (Level 5: growth control rate is above 85%) | 5 (Level 5: growth control rate is above 85%) | 5 (Level 5: growth control rate is above 85%) | 5 (Level 5: growth control rate is above 85%) | – | – | – | – |
| CCOC(=O)C1(C)CC(c2cc(-n3c(=O)n(C)c(=S)n(C)c3=O)c(F)cc2C#N)=NO1 (centres unmarked) [Compound 1-69] | – | – | – | – | 5 (Level 5: growth control rate is above 85%) | 5 (Level 5: growth control rate is above 85%) | 5 (Level 5: growth control rate is above 85%) | 5 (Level 5: growth control rate is above 85%) | – | – | – | – |
| Cn1c(=S)n(C)c(=O)n(-c2cc(C3=NOC(C)(C(=O)OC4CC4)C3)c(Cl)cc2F)c1=O (centres unmarked) [Compound 1-83] | – | – | – | – | 5 (Level 5: growth control rate is above 85%) | 5 (Level 5: growth control rate is above 85%) | 5 (Level 5: growth control rate is above 85%) | 5 (Level 5: growth control rate is above 85%) | – | – | – | – |
| Cn1c(=S)n(C)c(=O)n(-c2cc(C3=NOC(C)(C(=O)OCC=CCl)C3)c(Cl)cc2F)c1=O (centres unmarked) [Compound 1-92] | – | – | – | – | 5 (Level 5: growth control rate is above 85%) | 5 (Level 5: growth control rate is above 85%) | 5 (Level 5: growth control rate is above 85%) | 5 (Level 5: growth control rate is above 85%) | – | – | – | – |
| CCOC(=O)[C@]1(CBr)CC(c2cc(-n3c(=O)n(C)c(=S)n(C)c3=O)c(F)cc2Cl)=NO1 [31(S)] | – | – | – | – | 5 (Level 5: growth control rate is above 85%) | 5 (Level 5: growth control rate is above 85%) | 5 (Level 5: growth control rate is above 85%) | 5 (Level 5: growth control rate is above 85%) | – | – | – | – |
| CC#CCOC(=O)C1(C)CC(c2cc(-n3c(=O)n(C)c(=S)n(C)c3=O)c(F)cc2Cl)=NO1 (centres unmarked) [Compound 1-80] | – | – | – | – | 5 (Level 5: growth control rate is above 85%) | 5 (Level 5: growth control rate is above 85%) | 5 (Level 5: growth control rate is above 85%) | 5 (Level 5: growth control rate is above 85%) | – | – | – | – |
| CCOC(=O)[C@]1(CC)CC(c2cc(-n3c(=O)cc(C(F)(F)F)n(C)c3=S)c(F)cc2Cl)=NO1 [229(S)] | – | – | – | – | 5 (Level 5: growth control rate is above 85%) | 5 (Level 5: growth control rate is above 85%) | 5 (Level 5: growth control rate is above 85%) | 5 (Level 5: growth control rate is above 85%) | – | – | – | – |
| CCOC(=O)C1ON=C(c2cc(-n3c(=O)n(C)c(=S)n(C)c3=O)c(F)cc2Cl)C1C(F)(F)F (centres unmarked) [Compound 1-99] | – | – | – | – | 5 (Level 5: growth control rate is above 85%) | 5 (Level 5: growth control rate is above 85%) | 5 (Level 5: growth control rate is above 85%) | 5 (Level 5: growth control rate is above 85%) | – | – | – | – |
| CCOC(=O)[C@@]1(CCF)CC(c2cc(-n3c(=O)n(C)c(=S)n(C)c3=O)c(F)cc2Cl)=NO1 [34(S)] | 5 (Level 5: growth control rate is above 85%) | 5 (Level 5: growth control rate is above 85%) | 5 (Level 5: growth control rate is above 85%) | 5 (Level 5: growth control rate is above 85%) | – | – | – | – | – | – | – | – |
| COC(=O)C1(C)CC(c2cc(-n3c(=O)n(C)c(=S)n(C)c3=O)c(F)cc2Cl)=NO1 (centres unmarked) [Compound 1-60] | – | – | – | – | 5 (Level 5: growth control rate is above 85%) | 5 (Level 5: growth control rate is above 85%) | 5 (Level 5: growth control rate is above 85%) | 5 (Level 5: growth control rate is above 85%) | – | – | – | – |
| CCOC(=O)[C@@]1(C2CC2)CC(c2cc(-n3c(=O)cc(C(F)(F)F)n(C)c3=O)c(F)cc2Cl)=NO1 [119(S)] | 5 (Level 5: growth control rate is above 85%) | 5 (Level 5: growth control rate is above 85%) | 5 (Level 5: growth control rate is above 85%) | 5 (Level 5: growth control rate is above 85%) | – | – | – | – | 5 (Level 5: growth control rate is above 85%) | 5 (Level 5: growth control rate is above 85%) | 4 (Level 4: growth control rate is greater than or equal to 60% and less than 85%) | 4 (Level 4: growth control rate is greater than or equal to 60% and less than 85%) |
